Measured values from ChEMBL document CHEMBL5442219.

How the values were obtained:
Details in all cases: Compound concentration 10 µM
[1] = target: T1, Alpha-2A adrenergic receptor (Homo sapiens) (UniProt P08913)
T1 sequence (whole entry): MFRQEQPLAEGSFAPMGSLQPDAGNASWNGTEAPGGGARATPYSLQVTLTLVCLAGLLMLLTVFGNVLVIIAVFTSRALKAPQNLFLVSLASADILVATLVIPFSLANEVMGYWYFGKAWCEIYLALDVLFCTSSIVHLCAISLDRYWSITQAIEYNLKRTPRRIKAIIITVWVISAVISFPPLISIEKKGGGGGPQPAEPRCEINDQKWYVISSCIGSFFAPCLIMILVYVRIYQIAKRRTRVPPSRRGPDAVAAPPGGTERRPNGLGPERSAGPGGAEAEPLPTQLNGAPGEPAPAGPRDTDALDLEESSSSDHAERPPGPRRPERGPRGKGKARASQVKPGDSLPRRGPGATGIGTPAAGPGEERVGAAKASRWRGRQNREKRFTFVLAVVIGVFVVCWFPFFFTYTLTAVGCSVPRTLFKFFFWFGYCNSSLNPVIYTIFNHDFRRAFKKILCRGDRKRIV

[2] = target: T2, Alpha-2C adrenergic receptor (Homo sapiens) (UniProt P18825)
T2 sequence (whole entry): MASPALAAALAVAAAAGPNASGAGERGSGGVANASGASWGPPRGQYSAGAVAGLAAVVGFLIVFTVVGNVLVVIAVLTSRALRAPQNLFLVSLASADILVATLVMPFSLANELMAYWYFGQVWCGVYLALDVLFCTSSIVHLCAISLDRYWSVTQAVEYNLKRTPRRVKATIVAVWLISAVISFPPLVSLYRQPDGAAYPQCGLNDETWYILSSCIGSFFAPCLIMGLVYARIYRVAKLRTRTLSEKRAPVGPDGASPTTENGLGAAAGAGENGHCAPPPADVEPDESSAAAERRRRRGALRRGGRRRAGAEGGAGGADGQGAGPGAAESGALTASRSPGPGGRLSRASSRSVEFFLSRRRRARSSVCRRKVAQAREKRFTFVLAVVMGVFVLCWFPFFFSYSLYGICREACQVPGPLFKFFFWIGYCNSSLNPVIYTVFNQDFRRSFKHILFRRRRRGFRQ

[3] = target: Beta-2 adrenergic receptor (Homo sapiens) (UniProt P07550)
[4] = target: D(3) dopamine receptor (Homo sapiens) (UniProt P35462)
Sequence of D(3) dopamine receptor (Homo sapiens) (P35462 whole entry): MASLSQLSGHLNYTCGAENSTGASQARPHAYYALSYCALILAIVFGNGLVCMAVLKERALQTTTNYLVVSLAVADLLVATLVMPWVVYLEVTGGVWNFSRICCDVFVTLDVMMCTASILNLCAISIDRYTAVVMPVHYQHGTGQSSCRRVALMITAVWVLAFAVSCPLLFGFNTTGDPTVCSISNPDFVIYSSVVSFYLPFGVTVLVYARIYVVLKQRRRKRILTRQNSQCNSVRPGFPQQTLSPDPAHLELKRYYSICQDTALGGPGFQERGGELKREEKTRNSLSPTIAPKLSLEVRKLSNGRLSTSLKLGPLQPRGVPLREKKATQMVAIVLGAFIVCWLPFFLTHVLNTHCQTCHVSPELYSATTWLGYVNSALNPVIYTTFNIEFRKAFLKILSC

[5] = target: Histamine H1 receptor (Homo sapiens) (UniProt P35367)
Sequence of Histamine H1 receptor (Homo sapiens) (P35367 whole entry): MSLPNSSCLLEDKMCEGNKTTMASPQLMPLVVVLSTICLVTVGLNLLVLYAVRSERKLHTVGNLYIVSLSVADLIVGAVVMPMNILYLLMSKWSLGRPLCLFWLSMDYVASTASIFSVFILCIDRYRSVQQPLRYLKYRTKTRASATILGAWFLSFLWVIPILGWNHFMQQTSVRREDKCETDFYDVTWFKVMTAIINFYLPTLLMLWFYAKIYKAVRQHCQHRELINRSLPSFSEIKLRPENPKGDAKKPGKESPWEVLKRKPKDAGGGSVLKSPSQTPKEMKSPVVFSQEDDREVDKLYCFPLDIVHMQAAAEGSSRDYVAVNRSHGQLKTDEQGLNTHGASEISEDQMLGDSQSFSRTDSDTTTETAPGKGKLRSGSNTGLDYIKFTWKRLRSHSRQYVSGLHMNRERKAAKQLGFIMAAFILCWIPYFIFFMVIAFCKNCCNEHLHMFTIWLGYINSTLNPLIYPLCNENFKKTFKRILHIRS

[6] = target: Histamine H4 receptor (Homo sapiens) (UniProt Q9H3N8)
[7] = target: 5-hydroxytryptamine receptor 1B (Homo sapiens) (UniProt P28222)
Sequence of 5-hydroxytryptamine receptor 1B (Homo sapiens) (P28222 whole entry): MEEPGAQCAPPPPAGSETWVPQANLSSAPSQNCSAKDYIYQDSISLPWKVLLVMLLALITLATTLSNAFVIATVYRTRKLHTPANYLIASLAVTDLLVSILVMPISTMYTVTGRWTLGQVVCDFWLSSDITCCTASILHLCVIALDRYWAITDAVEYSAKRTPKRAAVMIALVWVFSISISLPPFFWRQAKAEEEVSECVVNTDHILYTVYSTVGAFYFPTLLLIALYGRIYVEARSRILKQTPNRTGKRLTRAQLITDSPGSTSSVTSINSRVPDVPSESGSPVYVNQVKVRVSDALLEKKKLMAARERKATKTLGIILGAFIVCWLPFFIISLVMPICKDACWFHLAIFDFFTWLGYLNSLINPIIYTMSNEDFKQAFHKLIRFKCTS

[8] = target: 5-hydroxytryptamine receptor 1D (Homo sapiens) (UniProt P28221)
Sequence of 5-hydroxytryptamine receptor 1D (Homo sapiens) (P28221 whole entry): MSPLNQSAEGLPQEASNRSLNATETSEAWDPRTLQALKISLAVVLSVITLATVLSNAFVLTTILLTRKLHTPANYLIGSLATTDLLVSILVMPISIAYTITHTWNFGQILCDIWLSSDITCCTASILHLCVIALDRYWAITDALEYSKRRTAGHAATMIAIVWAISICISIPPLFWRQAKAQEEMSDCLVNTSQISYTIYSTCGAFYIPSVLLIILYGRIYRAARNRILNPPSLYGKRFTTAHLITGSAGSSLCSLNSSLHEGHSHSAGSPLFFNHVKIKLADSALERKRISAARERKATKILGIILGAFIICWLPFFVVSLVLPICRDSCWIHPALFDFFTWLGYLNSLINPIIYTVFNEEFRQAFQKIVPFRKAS

[9] = target: 5-hydroxytryptamine receptor 1E (Homo sapiens) (UniProt P28566)
Sequence of 5-hydroxytryptamine receptor 1E (Homo sapiens) (P28566 whole entry): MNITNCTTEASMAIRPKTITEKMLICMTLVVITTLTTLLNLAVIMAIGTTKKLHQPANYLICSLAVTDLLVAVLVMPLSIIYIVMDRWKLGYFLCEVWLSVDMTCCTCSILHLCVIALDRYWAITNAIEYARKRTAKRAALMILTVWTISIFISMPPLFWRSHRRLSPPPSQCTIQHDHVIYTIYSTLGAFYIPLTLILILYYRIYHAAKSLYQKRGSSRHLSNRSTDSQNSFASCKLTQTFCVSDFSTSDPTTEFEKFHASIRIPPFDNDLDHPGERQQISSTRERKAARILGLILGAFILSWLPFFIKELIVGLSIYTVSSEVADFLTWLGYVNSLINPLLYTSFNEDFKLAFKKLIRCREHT

[10] = target: 5-hydroxytryptamine receptor 2A (Homo sapiens) (UniProt P28223)
Sequence of 5-hydroxytryptamine receptor 2A (Homo sapiens) (P28223 whole entry): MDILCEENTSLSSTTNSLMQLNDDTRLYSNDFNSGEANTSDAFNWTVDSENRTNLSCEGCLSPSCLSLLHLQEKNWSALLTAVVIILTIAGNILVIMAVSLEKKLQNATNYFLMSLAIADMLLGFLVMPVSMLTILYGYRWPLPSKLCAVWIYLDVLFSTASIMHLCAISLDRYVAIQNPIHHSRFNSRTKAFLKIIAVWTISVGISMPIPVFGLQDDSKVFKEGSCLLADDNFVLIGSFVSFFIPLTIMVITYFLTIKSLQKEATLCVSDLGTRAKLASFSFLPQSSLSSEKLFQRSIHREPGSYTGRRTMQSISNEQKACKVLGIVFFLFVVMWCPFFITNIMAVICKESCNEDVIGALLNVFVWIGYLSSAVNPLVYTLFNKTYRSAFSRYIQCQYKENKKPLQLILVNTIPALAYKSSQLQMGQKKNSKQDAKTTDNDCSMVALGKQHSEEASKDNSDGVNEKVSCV

[11] = target: T3, 5-hydroxytryptamine receptor 3A (Homo sapiens) (UniProt P46098)
T3 sequence (whole entry): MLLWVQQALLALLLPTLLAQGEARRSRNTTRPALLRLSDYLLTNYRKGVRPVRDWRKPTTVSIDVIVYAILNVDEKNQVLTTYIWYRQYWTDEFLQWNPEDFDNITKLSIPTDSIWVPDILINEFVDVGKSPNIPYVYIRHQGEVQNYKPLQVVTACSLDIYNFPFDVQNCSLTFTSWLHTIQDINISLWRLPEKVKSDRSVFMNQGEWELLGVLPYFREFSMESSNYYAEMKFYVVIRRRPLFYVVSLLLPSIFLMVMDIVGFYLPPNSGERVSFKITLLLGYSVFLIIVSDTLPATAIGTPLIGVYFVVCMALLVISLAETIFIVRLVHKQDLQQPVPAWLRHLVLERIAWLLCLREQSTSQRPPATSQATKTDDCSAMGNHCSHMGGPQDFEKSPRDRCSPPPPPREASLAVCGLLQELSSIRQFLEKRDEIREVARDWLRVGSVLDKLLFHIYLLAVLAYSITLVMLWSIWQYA

[12] = target: 5-hydroxytryptamine receptor 5A (Homo sapiens) (UniProt P47898)
[13] = target: 5-hydroxytryptamine receptor 7 (Homo sapiens) (UniProt P34969)
Sequence of 5-hydroxytryptamine receptor 7 (Homo sapiens) (P34969 whole entry): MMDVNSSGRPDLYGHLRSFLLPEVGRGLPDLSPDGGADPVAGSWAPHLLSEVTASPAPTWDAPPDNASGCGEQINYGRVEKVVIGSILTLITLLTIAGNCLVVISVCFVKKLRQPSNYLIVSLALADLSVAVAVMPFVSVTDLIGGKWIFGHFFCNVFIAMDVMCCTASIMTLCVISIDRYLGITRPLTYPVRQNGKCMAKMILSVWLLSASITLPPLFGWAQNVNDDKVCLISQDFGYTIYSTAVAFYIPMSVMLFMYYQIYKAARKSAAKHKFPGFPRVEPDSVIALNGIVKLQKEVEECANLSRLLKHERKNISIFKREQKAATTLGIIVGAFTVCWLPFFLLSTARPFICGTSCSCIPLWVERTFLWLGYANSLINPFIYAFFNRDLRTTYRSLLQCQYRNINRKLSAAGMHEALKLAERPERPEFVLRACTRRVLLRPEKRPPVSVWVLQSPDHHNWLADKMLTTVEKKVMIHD

[14] = target: Kappa-type opioid receptor (Homo sapiens) (UniProt P41145)
Sequence of Kappa-type opioid receptor (Homo sapiens) (P41145 whole entry): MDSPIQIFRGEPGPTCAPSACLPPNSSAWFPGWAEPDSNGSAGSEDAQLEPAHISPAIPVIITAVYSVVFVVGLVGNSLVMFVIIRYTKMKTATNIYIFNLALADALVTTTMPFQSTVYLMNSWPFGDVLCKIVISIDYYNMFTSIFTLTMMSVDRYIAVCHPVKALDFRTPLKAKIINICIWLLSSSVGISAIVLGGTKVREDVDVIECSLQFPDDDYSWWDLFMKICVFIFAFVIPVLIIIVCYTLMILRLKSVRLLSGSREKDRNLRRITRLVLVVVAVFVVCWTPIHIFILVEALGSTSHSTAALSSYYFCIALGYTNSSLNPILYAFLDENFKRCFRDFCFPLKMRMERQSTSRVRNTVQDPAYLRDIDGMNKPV

[15] = target: Sodium-dependent noradrenaline transporter (Homo sapiens) (UniProt P23975)
Sequence of Sodium-dependent noradrenaline transporter (Homo sapiens) (P23975 whole entry): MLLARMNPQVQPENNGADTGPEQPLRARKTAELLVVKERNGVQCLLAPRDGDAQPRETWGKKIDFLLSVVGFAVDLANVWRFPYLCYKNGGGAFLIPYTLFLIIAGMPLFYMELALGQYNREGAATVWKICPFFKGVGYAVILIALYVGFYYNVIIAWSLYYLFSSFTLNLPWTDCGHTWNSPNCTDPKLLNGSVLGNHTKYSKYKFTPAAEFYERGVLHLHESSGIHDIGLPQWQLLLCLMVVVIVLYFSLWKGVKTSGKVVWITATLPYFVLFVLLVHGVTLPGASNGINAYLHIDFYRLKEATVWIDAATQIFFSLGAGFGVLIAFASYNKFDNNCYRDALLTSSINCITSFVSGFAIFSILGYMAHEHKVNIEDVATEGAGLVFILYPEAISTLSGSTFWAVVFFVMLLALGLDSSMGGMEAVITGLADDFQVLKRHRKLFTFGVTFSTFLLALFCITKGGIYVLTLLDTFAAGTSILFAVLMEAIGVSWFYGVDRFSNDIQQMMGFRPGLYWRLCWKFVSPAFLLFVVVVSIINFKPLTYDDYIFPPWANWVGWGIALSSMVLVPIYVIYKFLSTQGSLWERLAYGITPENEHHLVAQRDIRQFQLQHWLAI

[16] = target: Sodium-dependent dopamine transporter (Homo sapiens) (UniProt Q01959)
Sequence of Sodium-dependent dopamine transporter (Homo sapiens) (Q01959 whole entry): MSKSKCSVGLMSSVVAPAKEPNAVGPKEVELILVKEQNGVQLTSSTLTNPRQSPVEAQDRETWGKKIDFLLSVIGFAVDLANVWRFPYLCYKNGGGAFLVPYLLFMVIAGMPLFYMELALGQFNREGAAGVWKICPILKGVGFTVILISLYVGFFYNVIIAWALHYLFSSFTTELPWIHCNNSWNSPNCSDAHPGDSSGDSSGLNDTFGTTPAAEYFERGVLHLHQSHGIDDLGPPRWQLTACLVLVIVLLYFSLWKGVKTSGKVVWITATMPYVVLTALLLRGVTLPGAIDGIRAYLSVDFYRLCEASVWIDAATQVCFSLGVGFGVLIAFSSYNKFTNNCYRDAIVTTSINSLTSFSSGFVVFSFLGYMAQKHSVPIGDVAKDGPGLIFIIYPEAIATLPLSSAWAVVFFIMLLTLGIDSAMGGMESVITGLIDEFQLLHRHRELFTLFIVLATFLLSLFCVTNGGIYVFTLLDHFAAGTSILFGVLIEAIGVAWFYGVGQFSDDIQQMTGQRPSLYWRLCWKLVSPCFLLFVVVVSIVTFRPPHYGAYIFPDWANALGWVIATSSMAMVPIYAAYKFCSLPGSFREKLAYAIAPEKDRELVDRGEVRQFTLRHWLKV

[17] = target: Translocator protein (Homo sapiens) (UniProt P30536)
Sequence of Translocator protein (Homo sapiens) (P30536 whole entry): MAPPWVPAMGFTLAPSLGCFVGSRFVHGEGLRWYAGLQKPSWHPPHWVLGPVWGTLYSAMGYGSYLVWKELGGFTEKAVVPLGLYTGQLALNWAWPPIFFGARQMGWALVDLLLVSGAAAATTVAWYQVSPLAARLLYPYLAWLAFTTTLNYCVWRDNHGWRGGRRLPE

[18] = target: T4, 5-hydroxytryptamine receptor 2C (Homo sapiens) (UniProt P28335)
T4 sequence (whole entry): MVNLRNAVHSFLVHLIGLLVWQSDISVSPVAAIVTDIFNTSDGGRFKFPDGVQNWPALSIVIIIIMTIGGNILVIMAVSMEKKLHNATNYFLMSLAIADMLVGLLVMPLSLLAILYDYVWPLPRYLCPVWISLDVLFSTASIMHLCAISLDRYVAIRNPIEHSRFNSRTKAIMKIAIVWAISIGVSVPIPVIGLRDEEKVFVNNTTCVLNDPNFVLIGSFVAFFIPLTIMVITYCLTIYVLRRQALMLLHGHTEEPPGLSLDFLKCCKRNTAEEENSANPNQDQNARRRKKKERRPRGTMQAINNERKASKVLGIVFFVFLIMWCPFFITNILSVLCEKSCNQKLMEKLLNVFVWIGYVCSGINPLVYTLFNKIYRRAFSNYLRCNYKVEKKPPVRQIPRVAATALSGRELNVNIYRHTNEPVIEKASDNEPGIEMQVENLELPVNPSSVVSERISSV

Measured: inhibition

CC1CCN(CC[C@H]2CCCN2S(=O)(=O)c2cccc(O)c2)CC1
inactive: [3] -9.8% | [5] 44.4% | [6] 10.6% | [9] 7.28% | [10] 28.8% | [11] -9.3% | [15] 30.6% | [16] 46.1% | [17] -7.14%
active: [1] 65.6% | [2] 51.5% | [4] 61.6% | [7] 78.2% | [8] 88.7% | [12] 91.7% | [13] 85.8% | [14] 50.4%

Cc1nn(C)c(C)c1-c1cccc2c1CC[C@H](N(C)C)C2
inactive: [2] 45.4% | [3] 20.2% | [4] -2.85% | [5] 9.36% | [9] 47.5% | [18] 13.1% | [14] 23.1% | [15] -2.38% | [16] 37.9%
active: [1] 89.8% | [7] 91.5% | [8] 95.6% | [11] 85.9% | [12] 87.1% | [13] 94.1%

c1nc(CC2CCNCC2)c[nH]1
active: [6] 105%
inactive: [1] 14.5% | [2] -1.91% | [3] 5.09% | [4] -4.62% | [5] 26.1% | [7] 17.7% | [8] 9.58% | [9] 9.31% | [10] 20.8% | [11] 6.29% | [12] -4.49% | [13] 11.9% | [15] 15.7% | [16] 14.6%

NCCc1cn(S(=O)(=O)c2c(Cl)nc3sccn23)c2ccccc12
active: [1] 93.4% | [5] 52.1% | [7] 82.5% | [8] 81.9% | [10] 94.2% | [11] 79.2% | [13] 66.9% | [15] 84.1% | [16] 67.9%
inactive: [2] 42.5% | [3] 39.8% | [4] 32% | [6] 11.2% | [9] 23.3% | [12] 28.4% | [14] 32.8% | [17] -4.24%

CCCCCCCCCCCCC/C=C/[C@@H](O)[C@@H](N)COP(=O)(O)O
active: [8] 63.5% | [17] 64.6%
inactive: [1] 4.33% | [2] -4.87% | [4] 1.79% | [5] 14.3% | [6] 7.9% | [7] 8.79% | [9] 14.4% | [10] -3.21% | [18] -2.94% | [11] -1.93% | [12] -4.35% | [13] 16.1% | [14] 6.18% | [15] 35.1%

OCc1cc(C(O)CNCCCCCCOCCCCc2ccccc2)ccc1O (stereo not drawn)
active: [1] 58% | [4] 59.6% | [7] 51.1% | [8] 76.6% | [10] 78.2% | [18] 60.6% | [13] 97.4% | [15] 98.7% | [16] 86.5%
inactive: [2] 45.6% | [5] 27.7% | [6] 6.15% | [9] 17.4% | [11] 4.21% | [12] 9.07% | [14] 9.07% | [17] -0.39%

OC[C@H]1O[C@@H](n2cnc3c(NC4CCCC4)ncnc32)[C@H](O)[C@@H]1O
inactive: [1] -6.3% | [3] -3.65% | [4] 7.26% | [5] 2.72% | [7] 15.9% | [8] 24.7% | [9] -3.16% | [10] -8.74% | [18] -3.43% | [11] 3.29% | [12] -5.9% | [13] 16.1% | [14] -5.12% | [15] 28.3% | [16] 36.9%

Brc1c(NC2=NCCN2)ccc2nccnc12
active: [1] 103% | [2] 75.6% | [13] 69.9%
inactive: [3] -1.17% | [4] 29.2% | [6] 2.56% | [7] 7.31% | [8] 49.5% | [18] 6.61% | [11] -5.05% | [15] 19.2% | [16] -6.87% | [17] -7.41%

NC[C@H](O)c1ccc(O)c(O)c1
inactive: [3] 16.9% | [7] 10.7% | [8] 24.3% | [9] 1.24% | [10] 10.9% | [18] -4.42% | [11] -8.31% | [13] -5% | [14] 0.54% | [15] 15.2% | [16] 21.8% | [17] 4.34%
active: [1] 61.9% | [2] 79.4% | [4] 57.9%

CCC(=O)NCC[C@@H]1CCc2ccc3c(c21)CCO3
inactive: [1] 18.4% | [2] -9.25% | [3] 12.6% | [4] 8.49% | [5] -1.68% | [7] 15.8% | [8] 6.75% | [9] -5.33% | [10] 6.79% | [18] -6.58% | [11] 6.73% | [12] 21.8% | [13] 12.4% | [14] 14.2% | [15] 18% | [16] -2.02% | [17] 27.6%

NCCc1c[nH]c2ccc(C(N)=O)cc12
inactive: [2] 15.4% | [3] 4.33% | [4] 7.17% | [5] -4.09% | [6] -3.92% | [10] -8.47% | [14] 2.24% | [16] 44.6%
active: [1] 69.8% | [7] 101% | [8] 98.3% | [9] 65.6% | [18] 71.4% | [12] 99.4% | [13] 100% | [15] 63.2%

CC1(C)SSC(C)(C)[C@@H](NC(=O)[C@@H](N)Cc2ccc(O)cc2)C(=O)NCC(=O)N[C@@H](Cc2ccccc2)C(=O)N[C@H]1C(=O)O
inactive: [1] 13.7% | [2] -6.75% | [3] -0.03% | [4] 0.23% | [5] 3.33% | [6] -8.56% | [7] 7.79% | [8] 15.2% | [9] 17.2% | [10] 24.5% | [12] -9.01% | [13] -0.55% | [14] -4.89% | [15] 3.43% | [16] 27.3%
